Tests used:
[1] = tested on: muscle gastrocnemius of old mice; experiment: Muscle biological age by DNA methylation, pan tissue clock, in old mice; assay type: in vivo, mouse
Excerpt: (§1) All animal experiments comply with the International Guiding Principles for Biomedical Research Involving Animals developed by the Council for International Organizations of Medical Sciences and the following guidelines for animal welfare. 24 old mice aged 18 months and 12 young mice aged 6 months were kept in a temperature-and humidity-controlled environment with a 12:12-h light-dark cycle. Mice had access to nesting and enrichment materials and were provided with ad libitum access to water and food.
(§2) Old mice were split in two groups and received either 20 mg/kg body weight of thymol or vehicle by gavage daily for 12 weeks, whereas young mice received the vehicle only (n=12). Animals found dead or euthanized at the humane endpoint for pain or physical distress, have been excluded from the analysis. At the end of the treatment, mice were euthanized with isoflurane after 2-hours fasting. Muscle gastrocnemius has been dissected samples and snap frozen in liquid nitrogen and stored at −80° C.
(§3) DNA extraction was performed on 100 mg of muscle using QIAGEN DNeasy Blood and Tissue kit (Cat. No: 69506) and following manufacturer recommendations. DNA was quantified using the DropSense technology (from Unchained Labs). […]
(§4) To calculate biological age, raw data have been analysed using algorithms (clocks) developed by the Clock Foundation. […] Data were plotted and analysed using GraphPad Prism 9. […]

[2] = tested on: muscle gastrocnemius of old mice; experiment: Muscle biological age by DNA methylation, intervention muscle clock, in old mice; assay type: in vivo, mouse; details: 20 mg/kg/day for 12 weeks
Excerpt: as §1, §2, §3, §4

## Cc1ccc(C(C)C)c(O)c1 [thymol]
[1]; 20 mg/kg/day by gavage daily for 12 weeks, vs old vehicle
  reduction of muscle biological age measured with the pan tissue clock: 20.3%
[1]; 20 mg/kg/day for 12 weeks
  effect on biological age in old mice: significantly reduced biological age in old mice
[2]
  effects on biological age using the interventions muscle clock: confirmed

Reference: patent US20260124158A1, “COMPOSITIONS AND METHODS TO REDUCE BIOLOGICAL AGE OF AN ADULT ANIMAL” (Société des Produits Nestlé S.A., priority 2022, published 2026)
